The supplement of paper PMC10307832

Legend:
Assay in all cases: relative viability (nuclei count vs DMSO), 5 days (fraction); higher = more cells survive
[1] = compound: Nc1ccn([C@@H]2O[C@H](CO)[C@@H](O)C2(F)F)c(=O)n1 [Gemcitabine] + Nc1nc2[nH]cc(CCc3ccc(C(=O)N[C@@H](CCC(=O)O)C(=O)O)cc3)c2c(=O)[nH]1 [Pemetrexed] (partner 0.2 µM)
How it was run: (§1)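 For relative viability, nuclei counts in treated wells were divided by those in vehicle wells. Lung cancer cell lines had been pin-tool dosed in 1536-well plates the day after seeding and cultured for 5 days, then fixed and stained in one step (final 0.05% Triton X-100, 1% formaldehyde, 1 ug/ml Hoechst) and imaged at 4×. Doses were one drug alone or a fixed anchor-drug dose plus five library-drug doses (not always all listed) in √10 steps, and values are duplicate-plate medians.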

[2] = compound: Nc1ccn([C@@H]2O[C@H](CO)[C@@H](O)C2(F)F)c(=O)n1 [Gemcitabine] + Cc1nc(Nc2ncc(C(=O)Nc3c(C)cccc3Cl)s2)cc(N2CCN(CCO)CC2)n1 [Dasatinib] (partner 0.075 µM)
How it was run: as §1

[3] = compound: Nc1ccn([C@@H]2O[C@H](CO)[C@@H](O)C2(F)F)c(=O)n1 [Gemcitabine] + CS(=O)(=O)CCNCc1ccc(-c2ccc3ncnc(Nc4ccc(OCc5cccc(F)c5)c(Cl)c4)c3c2)o1 [Lapatinib] (partner 2 µM)
How it was run: as §1

[4] = compound: Nc1ccn([C@@H]2O[C@H](CO)[C@@H](O)C2(F)F)c(=O)n1 [Gemcitabine] + C[C@@H](Oc1cc(-c2cnn(C3CCNCC3)c2)cnc1N)c1c(Cl)ccc(F)c1Cl [Crizotinib] (partner 1 µM)
How it was run: as §1

Cell Line	relative viability ([1]; first compound 0.001 µM)	relative viability ([1]; first compound 0.003162 µM)	relative viability ([1]; first compound 0.01 µM)	relative viability ([1]; first compound 0.03162 µM)	relative viability ([1]; first compound 0.1 µM)	relative viability ([2]; first compound 0.001 µM)	relative viability ([2]; first compound 0.003162 µM)	relative viability ([2]; first compound 0.01 µM)	relative viability ([2]; first compound 0.03162 µM)	relative viability ([2]; first compound 0.1 µM)	relative viability ([3]; first compound 0.001 µM)	relative viability ([3]; first compound 0.003162 µM)	relative viability ([3]; first compound 0.01 µM)	relative viability ([3]; first compound 0.03162 µM)	relative viability ([3]; first compound 0.1 µM)	relative viability ([4]; first compound 0.001 µM)	relative viability ([4]; first compound 0.003162 µM)	relative viability ([4]; first compound 0.01 µM)	relative viability ([4]; first compound 0.03162 µM)	relative viability ([4]; first compound 0.1 µM)
NCI-H522	0.954	0.953	0.419	0.367	0.316	0.987	0.722	0.384	0.42	0.36										
ABC-1						0.548	0.483	0.373	0.175	0.175	1.14	1.2	0.95	0.88	0.664	1.2	1.4	0.829	0.342	0.114
NCI-H1793	1.09	0.98	0.406	0.139	0.141	0.368	0.388	0.186	0.12	0.12	1.07	0.734	0.489	0.244	0.166					
NCI-H1395	0.91	0.622	0.335	0.296	0.312	0.409	0.368	0.371	0.321	0.31	1.02	0.725	0.448	0.32	0.33					
NCI-H1299											0.941	1.01	0.962	0.938	0.921	1.03	0.977	0.973	0.995	0.983
ChaGo-K-1	0.247	0.23	0.23	0.209	0.183	0.535	0.544	0.205	0.144	0.166						1.12	0.961	0.578	0.36	0.314
NCI-H2342	0.821	0.698	0.748	0.412	0.337	0.312	0.277	0.282	0.233	0.293										
A549											0.967	0.747	0.249	0.0488	0.033	0.858	0.377	0.229	0.0341	0.0206
IA-LM												0.853	0.353	0.124	0.0354		0.615	0.254	0.0992	0.0456
LCLC-103H	0.423	0.435	0.44	0.407	0.392	0.54	0.53	0.502	0.179	0.223						1.12	1.07	0.934	0.997	0.272
Calu-6											1.03	0.799	0.348	0.167	0.126	0.784	0.585	0.279	0.145	0.123
